Like-named read-outs stand apart in the source and are kept apart here.
What was measured:
[1] = system: human peripheral blood lymphocytes (IgG); test: In vitro IgG production by peripheral blood lymphocytes; type: cell-based
Protocol: Human peripheral blood lymphocytes (6×10^5 cells/ml) were cultured in the presence of 0 to 2 μg/ml of pokeweed mitogen (PWM; Sigma no. 9379) in Dulbeccos minimum essential medium, supplemented with 20% fetal calf serum, for 6 days. The assays were performed in a final volume of 200 μl in microtiter plates (Dynatech; M129B) (Muller et al., Eur. J. Cancer Clin. Oncol. 22: 473-476; 1986). Avarol in a concentration range of 0-3 μg/ml was added at time 0 or 3 days after starting the culture. The supernatants were harvested and assayed for human immunoglobulin content.
The culture supernatants were assayed by the enzyme-linked immunosorbent assay (Houtman et al., Clin. Exp. Immunol. 62: 696-704; 1985) using anti-human IgG (Dakopatts, Hamburg; P214) and anti-human IgM (Dakopatts; P215). These antibodies were conjugated to peroxidase. Bound enzyme activity was measured using 2,2'-azino-bis(3-ethylbenzthiazolinesulfonic acid) (Sigma no. A-1888) as substrate.

[2] = system: normal T-lymphocytes; details: cited from earlier work
[3] = system: Arthus reaction in Sprague-Dawley rats; test: Antibody mediated hypersensitivity (modified active Arthus reaction, ovalbumin); type: in vivo, rat
[4] = system: plaque forming cells in the spleen of mice; test: Jerne plaque test, plaque forming cells in spleen of SRBC-immunized mice; type: in vivo, mouse; details: for Plaque forming cells per 10^6 cells: 30 mg/kg i.p.
Protocol: Concerning the functional consequences of the compound onto B-cells in vitro, I found (previous section) that both the IgG and the IgM secretion is stimulated in cultures of human lymphoid cells (unseparated) which are treated with non-cytostatic concentrations of avarol. This finding is supported by the results of the Jerne plaque test.
The plaque test of Jerne and Nordin (Science 140: 405-406, 1963) was used with the modification given by Cunningham and Szenberg (Immunolog. 14: 599-601; 1968). Briefly, 8 male NMRI mice per group (20-22 g) were immunized on day 0 by i.p. injection of 5×10^8 SRBC in 0.5 ml saline. Treatment with avarol was done i.p. either from day 0 to day +4 or from day -4 to day 0. One hour after the last drug administration, the animals were killed by a blow on the head and bled. The spleens were removed and a single cell suspension was prepared by teasing the pooled spleens through a 120-μm mesh sieve. After lysing the erythrocytes by 0.15M NH4 Cl, the cells were washed twice in Hank's balanced salt solution containing 29 ml of 7.5% NaHCO3 and 10 ml of 1M HEPES buffer solution per one liter. The cells were resuspended in 2 ml per spleen. Six Cunningham chambers per group were filled with a mixture of 0.5 ml of a suitable dilution of spleen cells (generally 1:100), 0.5 ml of a suspension of SRBC (10^9 /ml) and 125 μl of normal guinea pig complement. After 90-120 min of incubation at 37° C., the number of plaques was counted. Plaques per spleen or per 10^6 spleen cells were calculated.

[5] = type: in vivo, rat; details: for Percentage of Radioactivity in Blood: rat
[6] = system: normal B-lymphocytes; details: cited from earlier work
[7] = Lethal dose in rats; details: rat, in vivo; male Sprague-Dawley rats, treatment for 5 days; read-out: 50% lethal dose
Protocol: From previous experiments with NMRI mice, bearing L5178y cells, it is known that the chemotherapeutical dose of avarol is in the range of 1-50 mg/kg at a 50% lethal dose of 269.1 mg/kg (Muller et al., Cancer Res. 45: 4822-4826; 1985). The 50% lethal dose (treatment for 5 days) for male Sprague-Dawley rats was determined to be 235.7 mg/kg. Therefore, daily doses of avarol of 1-30 mg/kg/injection were chosen for the following in vivo studies.

[8] = system: herpes simplex virus; details: in vitro, cultures of herpes simplex virus; cited from earlier work
[9] = system: H9-cells infected with HTLV-III; test: Growth of HTLV-III infected H9 cells; type: cell-based, human; details: for Cell Concentration: infected H9 cells, four days, controls infected 0.5, uninfected 1.3
Protocol: For this, the H9 cell line was used, it consisting of a cloned OKT4+ T-cell line in which the AIDS virus propagates (M. Popovic, M. G. Sarngadharan, E. Reed and R. C. Gallo; Science 224, 497-500 (1984)).
H9-cells (M. Popovic, M. G. Sarngadharan, E. Reed, R. C. Gallo, Science: 224, 1984, 497-500) were treated with Polybren® (hexadimethrinbromide available on the market; 2 μg/ml) for 30 minutes at 37° C., washed free of Polybren and infected with 2×10^8 HTLV-III virus particles (isolated from H9 cell cultures by the method of M. Popovic; see above) per 4×10^5 H9 cells. Some assays which were not treated with drugs were used as positive controls, while different concentrations of the compound to be tested (avarone or avarol and their derivatives) were added to the test samples. The HTLV-III reverse transcriptase activity of these cultures was analyzed in the manner described above.
H9-cells as well as H9-cells infected with HTLV-III were used in a concentration of 0.2×10^6 cells/ml of culture medium for the inoculating of a culture medium. After incubation for four days, the density of the H9-cells was 1.3×10^6 cells/ml, while the density of the H9-cells infected with HTLV-III was only 0.5×10^6 cells/ml; these two values formed the control values.
Thereupon samples of H9-HTLV-III cells, 0.2×10^6 cells/ml, were treated for four days with different concentrations of avarol.

For CC1=CCC[C@H]2[C@](C)(Cc3cc(O)ccc3O)[C@@H](C)CC[C@]12C [Avarol, 2-[(1R)-1,2,3,4,4a,7,8,8aα-octahydro-1β,2β,4aβ,5-tetramethyl-1-naphthylmethyl]-1,4-benzenediol], the “IgG production, in words” value ([1]; 0.3 or 1 μg/ml, irrespective of PWM) was “significant increase”, the IgG synthesized ([1]; avarol 0.3 μg/ml, PWM +, 0 to 6 days) was 6.7 ± 1.5 µg/mL and the IgG synthesized ([1]; avarol 0.3 μg/ml, PWM +, 3 to 6 days) was 7.9 ± 1.9 µg/mL. It also gave an IgG synthesized ([1]; avarol 0.3 μg/ml, PWM -, 0 to 6 days) of 2.1 ± 0.5 µg/mL, an IgG synthesized ([1]; avarol 0.3 μg/ml, PWM -, 3 to 6 days) of 2.0 ± 0.5 µg/mL and an IgG synthesized ([1]; avarol 1.0 μg/ml, PWM +, 0 to 6 days) of 7.0 ± 1.6 µg/mL. For the same compound, the IgG synthesized ([1]; avarol 1.0 μg/ml, PWM +, 3 to 6 days) was 8.5 ± 1.9 µg/mL, the IgG synthesized ([1]; avarol 1.0 μg/ml, PWM -, 0 to 6 days) was 2.3 ± 0.6 µg/mL and the IgG synthesized ([1]; avarol 1.0 μg/ml, PWM -, 3 to 6 days) was 2.2 ± 0.5 µg/mL. The IgG synthesized ([1]; avarol 3.0 μg/ml, PWM +, 0 to 6 days) was 3.9 ± 1.0 µg/mL, the IgG synthesized ([1]; avarol 3.0 μg/ml, PWM +, 3 to 6 days) was 4.9 ± 1.0 µg/mL and the IgG synthesized ([1]; avarol 3.0 μg/ml, PWM -, 0 to 6 days) was 1.2 ± 0.3 µg/mL. For the same compound, the IgG synthesized ([1]; avarol 3.0 μg/ml, PWM -, 3 to 6 days) was 1.3 ± 0.3 µg/mL, the “IgG production, in words” value ([1]; higher avarol concentrations) was “turned to normal values” and the “concentration inhibiting [^3 H] dThd-incorporation rate by 50%” value [2] was 0.5 to 1.3 µg/mL. The “Arthus reaction, in words” value ([3]; 30 mg/kg, 24 hours and 30 minutes before challenge, P>0.05) was “weak suppression of the reaction”, the “Arthus reaction, in words” value ([3]; 3-30 mg/kg i.p., day -1 to +2, day +18 to +21, or immediately before challenge) was “no significant suppression of the Arthus reaction” and the “Plaque forming cells per 10^6 cells” value ([4]; from 0 to +4 days, untreated 2,782) was 3,316. The “Plaque forming cells per 10^6 cells” value ([4]; from -4 to 0 days, untreated 2,259) was 2,202, the “higher number of plaque forming cells/spleen” value ([4]; 30 mg/kg, day 0 to day +4) was 28% and the “increase of plaque forming cells/spleen” value ([4]; 30 mg/kg, day -4 to day 0) was 21%. For the same compound, the “Percentage of Radioactivity in Blood” value ([5]; i.v. 10 mg/kg, 1 hour, 100% = 10 minutes after injection) was 96%, the “Percentage of Radioactivity in Blood” value ([5]; i.v. 10 mg/kg, 6 hours, 100% = 10 minutes after injection) was 88% and the “Percentage of Radioactivity in Blood” value ([5]; i.v. 10 mg/kg, 12 hours, 100% = 10 minutes after injection) was 72%. The “Percentage of Radioactivity in Blood” value ([5]; i.v. 10 mg/kg, 24 hours, 100% = 10 minutes after injection) was 43%, the “Percentage of Radioactivity in Blood” value ([5]; i.v. 10 mg/kg, 48 hours, 100% = 10 minutes after injection) was 26% and the “Percentage of Radioactivity in Blood” value ([5]; i.v. 20 mg/kg, 1 hour, 100% = 10 minutes after injection) was 92%. For the same compound, the “Percentage of Radioactivity in Blood” value ([5]; i.v. 20 mg/kg, 12 hours, 100% = 10 minutes after injection) was 75%, the “Percentage of Radioactivity in Blood” value ([5]; i.v. 20 mg/kg, 24 hours, 100% = 10 minutes after injection) was 39% and the “Percentage of Radioactivity in Blood” value ([5]; i.v. 20 mg/kg, 48 hours, 100% = 10 minutes after injection) was 21%. The “Percentage of Radioactivity in Blood” value ([5]; in vivo, iv, 20 mg/kg) was 83, the half-life ([5]; rats, i.v.) was “approximately 22 hours” and the “concentration inhibiting [^3 H] dThd-incorporation rate by 50%” value [6] was 1.6 to 1.9 µg/mL. The LD50 at 120 h [7] was 236 mg/kg, the virostatic action [8] was “certain virostatic action in vitro” and the “growth rate of H9-HTLV-III cells” value ([9]; about 0.01 μg/ml) was “increase the growth rate of H9-HTLV-III cells to values which lie within the range of the control”. The “Cell Concentration” value ([9]; 0.1 μg/ml) was 1.42e+06 mL⁻¹ and the “Cell Concentration” value ([9]; 1 μg/ml) was 1.09e+06 mL⁻¹.

Source: patent US4939177A, “Use of avarol for the control of AIDS and ARC” (Merz + Co. GmbH & Co., priority 1986, dated 1990)
